Source: patent US4178443A, “Derivatives of 7 [-substituted oxyimins acetamido] cephalosporins” (Hoffmann-La Roche Inc., priority 1977, dated 1979)
Converted amounts (≈) assume the structure as drawn.

Key:
[1] = system: Staphylococcus aureus Penicillin-resistant strain; assay: Activity in vitro: Minimum Inhibitory Concentration; type: cell-based
From the text: (§1) Activity in vitro: Minimum Inhibitory Concentration (μg/ml)

[2] = system: Staphylococcus aureus ATCC 6538; assay: as above; type: cell-based; conditions: ATCC6538
From the text: as §1

Klebsiella pneumoniae = assay: as above; type: cell-based
From the text: as §1

Proteus rettgeri = assay: as above; type: cell-based; conditions: Providencia rettgeri
From the text: as §1

Haemophilus influenzae = assay: as above; type: cell-based
From the text: as §1

Proteus mirabilis [3] = assay: as above; type: cell-based
From the text: as §1

Proteus vulgaris = assay: as above; type: cell-based
From the text: as §1

Escherichia coli = assay: as above; type: cell-based
From the text: as §1

Proteus mirabilis [4] = assay: Activity in vivo: survival of mice infected intraperitoneally with Proteus mirabilis; conditions: sc, 96 h; mice infected i.p. with Proteus mirabilis; compound s.c. one hour after infection; survival on 4th day; by interpolation; read-out: CD50 (dosage at which 50% of the mice survive)
Description: Groups of 10 mice are infected intraperitoneally with an aqueous suspension of Proteus mirabilis. One hour after the infection the test compound is administered subcutaneously. The number of surviving mice is determined on the 4th day. Various dosages of test compound are administered and the dosage at which 50% of the mice survice (CD50, mg/kg) is determined by interpolation.

[5] = Toxicity (mice, 24 hour values); conditions: mouse, in vivo
Description: TOXICITY (mice, 24 hour values)

[6] = Haemophilus influenzae strain 1
[7] = Haemophilus influenzae strain 2
[8] = Haemophilus influenzae strain 3
[9] = Haemophilus influenzae strain 4
[10] = Haemophilus influenzae strain 5
[11] = Haemophilus influenzae strain 6
[12] = Haemophilus influenzae strain 7

Structure (SMILES) | MIC [1] | MIC [2] | MIC (Klebsiella pneumoniae) | MIC (Proteus rettgeri) | MIC (Haemophilus influenzae; [6]) | MIC (Haemophilus influenzae; [7]) | MIC (Haemophilus influenzae; [8]) | MIC (Haemophilus influenzae; [9]) | MIC (Haemophilus influenzae; [10]) | MIC (Haemophilus influenzae; [11]) | MIC (Haemophilus influenzae; [12]) | MIC (Proteus mirabilis [3]; Proteus mirabilis strain 1) | MIC (Proteus mirabilis [3]; Proteus mirabilis strain 2) | MIC (Proteus vulgaris) | MIC (Escherichia coli; Escherichia coli strain 1) | MIC (Escherichia coli; Escherichia coli strain 2) | ED50 (Proteus mirabilis [4]) | LD50 at 24 h ([5]; iv, mice, 24 hour values) | also measured
CON=C(C(=O)N[C@@H]1C(=O)N2C(C(=O)O)=C(CSc3nc(=O)c(=O)[nH]n3C)CS[C@H]12)c1ccco1 [Compound A, (7R)-7-[2-(2-furyl)-2-(methoxyimino)acetamido]-3-[[(1,2,5,6-tetrahydro-2-methyl-5,6-dioxo-as-triazin-3-yl)thio]methyl]-3-cephem-4-carboxylic acid] | 5 µg/mL (≈ 9.57 µM) | 2.5 µg/mL (≈ 4.78 µM) | 10 µg/mL (≈ 19.1 µM) | 0.63 µg/mL (≈ 1.21 µM) | 1.2 µg/mL (≈ 2.3 µM) | 0.16 µg/mL (≈ 0.306 µM) | 0.16 µg/mL (≈ 0.306 µM) | 0.16 µg/mL (≈ 0.306 µM) | 0.08 µg/mL (≈ 0.153 µM) | 0.16 µg/mL (≈ 0.306 µM) | 0.08 µg/mL (≈ 0.153 µM) | 2.5 µg/mL (≈ 4.78 µM) | 5 µg/mL (≈ 9.57 µM) | 5 µg/mL (≈ 9.57 µM) | 0.63 µg/mL (≈ 1.21 µM) | 40 µg/mL (≈ 76.6 µM) | 0.09 mg/kg | 500 to 1000 mg/kg | LD50 at 24 h ([5]; po, mice, 24 hour values): > 5000 mg/kg; LD50 at 24 h ([5]; sc, mice, 24 hour values): > 4000 mg/kg
CON=C(C(=O)N[C@@H]1C(=O)N2C(C(=O)O)=C(CSc3ccn(N)c(=O)n3)CS[C@H]12)c1ccco1 [Compound B, (7R)-7-[2-(2-furyl)-2-(methoxyimino)acetamido]-3-[[(1-amino-1,2-dihydro-2-oxo-4-pyrimidinyl)thio]-methyl]-3-cephem-4-carboxylic acid] | 1.2 µg/mL (≈ 2.37 µM) | 0.16 µg/mL (≈ 0.316 µM) | 20 µg/mL (≈ 39.5 µM) | 2.5 µg/mL (≈ 4.94 µM) | 2.5 µg/mL (≈ 4.94 µM) | 0.63 µg/mL (≈ 1.24 µM) | 0.63 µg/mL (≈ 1.24 µM) | 0.31 µg/mL (≈ 0.612 µM) | 0.31 µg/mL (≈ 0.612 µM) | 0.31 µg/mL (≈ 0.612 µM) | 0.31 µg/mL (≈ 0.612 µM) | 10 µg/mL (≈ 19.7 µM) | 40 µg/mL (≈ 79 µM) | 40 µg/mL (≈ 79 µM) | 2.5 µg/mL (≈ 4.94 µM) | 20 µg/mL (≈ 39.5 µM) | 3 mg/kg | 1000 to 2000 mg/kg | –
CON=C(C(=O)N[C@@H]1C(=O)N2C(C(=O)O)=C(CSc3nc(=O)c(=O)[nH]n3C)CS[C@H]12)c1ccccc1 [Compound C, (7R)-7-[2-(phenyl)-2-(methoxyimino)acetamido]-3-[[(1,2,5,6-tetrahydro-2-methyl-5,6-dioxo-as-triazin-3-yl)thio]methyl]-3-cephem-4-carboxylic acid] | 2.5 µg/mL (≈ 4.69 µM) | 2.5 µg/mL (≈ 4.69 µM) | 20 µg/mL (≈ 37.6 µM) | 0.63 µg/mL (≈ 1.18 µM) | 2.5 µg/mL (≈ 4.69 µM) | 0.16 µg/mL (≈ 0.3 µM) | 0.16 µg/mL (≈ 0.3 µM) | 0.16 µg/mL (≈ 0.3 µM) | 0.08 µg/mL (≈ 0.15 µM) | 0.08 µg/mL (≈ 0.15 µM) | 0.08 µg/mL (≈ 0.15 µM) | 10 µg/mL (≈ 18.8 µM) | 20 µg/mL (≈ 37.6 µM) | 10 µg/mL (≈ 18.8 µM) | 1.2 µg/mL (≈ 2.25 µM) | 10 µg/mL (≈ 18.8 µM) | 0.6 mg/kg | 1000 to 2000 mg/kg | –
CON=C(C(=O)N[C@@H]1C(=O)N2C(C(=O)O)=C(CSc3n[nH]c(=O)c(=O)n3C)CS[C@H]12)c1ccco1 [Compound D, (7R)-7-[2-(2-furyl)-2-(methoxyimino)acetamido]-3-[[(1,4,5,6-tetrahydro-4-methyl-5,6-dioxo-as-triazin-3-yl)thio]methyl]-3-cephem-4-carboxylic acid] | 0.63 µg/mL (≈ 1.21 µM) | 0.63 µg/mL (≈ 1.21 µM) | 5 µg/mL (≈ 9.57 µM) | 0.63 µg/mL (≈ 1.21 µM) | 2.5 µg/mL (≈ 4.78 µM) | 0.31 µg/mL (≈ 0.593 µM) | 0.31 µg/mL (≈ 0.593 µM) | 0.31 µg/mL (≈ 0.593 µM) | 0.16 µg/mL (≈ 0.306 µM) | 0.16 µg/mL (≈ 0.306 µM) | 0.16 µg/mL (≈ 0.306 µM) | 10 µg/mL (≈ 19.1 µM) | 20 µg/mL (≈ 38.3 µM) | 1.2 µg/mL (≈ 2.3 µM) | 0.16 µg/mL (≈ 0.306 µM) | 5 µg/mL (≈ 9.57 µM) | 0.7 mg/kg | 500 to 1000 mg/kg | LD50 at 24 h ([5]; po, mice, 24 hour values): > 5000 mg/kg; LD50 at 24 h ([5]; sc, mice, 24 hour values): > 4000 mg/kg
CCn1nc(SCC2=C(C(=O)O)N3C(=O)[C@@H](NC(=O)C(=NOC)c4ccco4)[C@H]3SC2)[nH]c(=O)c1=O [Compound F] | 5 µg/mL (≈ 9.32 µM) | 5 µg/mL (≈ 9.32 µM) | 40 µg/mL (≈ 74.6 µM) | 10 µg/mL (≈ 18.6 µM) | 2.5 µg/mL (≈ 4.66 µM) | 0.31 µg/mL (≈ 0.578 µM) | 1.2 µg/mL (≈ 2.24 µM) | 0.16 µg/mL (≈ 0.298 µM) | 0.08 µg/mL (≈ 0.149 µM) | 0.08 µg/mL (≈ 0.149 µM) | 0.16 µg/mL (≈ 0.298 µM) | 20 µg/mL (≈ 37.3 µM) | 40 µg/mL (≈ 74.6 µM) | 20 µg/mL (≈ 37.3 µM) | 1.2 µg/mL (≈ 2.24 µM) | 80 µg/mL (≈ 149 µM) | 0.85 mg/kg | – | LD50 at 24 h ([5]; iv): 1000 to 2000 mg/kg
Cn1c(SCC2=C(C(=O)O)N3C(=O)[C@@H](NC(=O)C(=NOCC(N)=O)c4ccco4)[C@H]3SC2)n[nH]c(=O)c1=O [Compound G, (7R)-7-[2-[(carbamoylmethoxy)imino]-2-(2-furyl)-acetamido]-3-[[(1,4,5,6-tetrahydro-4-methyl-5,6-dioxo-as-triazin-3-yl)thio]methyl]-3-cephem-4-carboxylic acid] | 1.2 µg/mL (≈ 2.12 µM) | 1.2 µg/mL (≈ 2.12 µM) | 2.5 µg/mL (≈ 4.42 µM) | 0.63 µg/mL (≈ 1.11 µM) | 5 µg/mL (≈ 8.84 µM) | 0.63 µg/mL (≈ 1.11 µM) | 0.31 µg/mL (≈ 0.548 µM) | 0.63 µg/mL (≈ 1.11 µM) | 0.31 µg/mL (≈ 0.548 µM) | 0.63 µg/mL (≈ 1.11 µM) | 0.63 µg/mL (≈ 1.11 µM) | 5 µg/mL (≈ 8.84 µM) | 10 µg/mL (≈ 17.7 µM) | 1.2 µg/mL (≈ 2.12 µM) | 0.31 µg/mL (≈ 0.548 µM) | 5 µg/mL (≈ 8.84 µM) | 0.8 mg/kg | > 4000 mg/kg | –
CON=C(C(=O)N[C@@H]1C(=O)N2C(C(=O)O)=C(CSc3nc(=O)c(=O)[nH]n3C)CS[C@H]12)c1cccs1 [Compound E] | 2.5 µg/mL (≈ 4.64 µM) | 2.5 µg/mL (≈ 4.64 µM) | 40 µg/mL (≈ 74.3 µM) | 2.5 µg/mL (≈ 4.64 µM) | 2.5 µg/mL (≈ 4.64 µM) | 0.16 µg/mL (≈ 0.297 µM) | 0.16 µg/mL (≈ 0.297 µM) | 0.16 µg/mL (≈ 0.297 µM) | 0.08 µg/mL (≈ 0.149 µM) | 0.08 µg/mL (≈ 0.149 µM) | 0.08 µg/mL (≈ 0.149 µM) | 10 µg/mL (≈ 18.6 µM) | 20 µg/mL (≈ 37.1 µM) | 10 µg/mL (≈ 18.6 µM) | 2.5 µg/mL (≈ 4.64 µM) | 20 µg/mL (≈ 37.1 µM) | 1.15 mg/kg | – | LD50 at 24 h ([5]; iv): 2000 to 4000 mg/kg
